Laboratory results taken from patent publication US10806785B2, “Immunomodulator compounds and methods of use” (Incyte Corporation, priority 2016, dated 2020).

Biological target: PD-1/PD-L1 (Homo sapiens (Human), UniProt Q9NZQ7)
Assay: PD-1/PD-L1 binding assay (HTRF)
How it was run: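 Fc-tagged human PD-1 (25-167) and His-tagged PD-L1 (19-238), listed as […] and 10 nM final, preincubated 40 min with inhibitors in PBS pH 7.4, 0.05% Tween-20, 0.1% BSA, 1% DMSO, 25 °C. Eu anti-IgG/APC anti-His added, 60 min, 665/620 nm HTRF ratio; IC50 fitted from percent control activity.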

Sequence of PD-1/PD-L1 (Q9NZQ7 19-238): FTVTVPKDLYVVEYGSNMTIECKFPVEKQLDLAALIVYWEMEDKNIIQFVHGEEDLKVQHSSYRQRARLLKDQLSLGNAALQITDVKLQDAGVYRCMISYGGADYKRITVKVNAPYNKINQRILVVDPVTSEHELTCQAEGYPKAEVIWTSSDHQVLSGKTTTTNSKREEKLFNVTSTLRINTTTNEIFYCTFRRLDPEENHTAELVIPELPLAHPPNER

IC50 [nM] | SMILES
≤ 10 | C[C@@H](O)CN1CCc2c(nc(C(=O)Nc3cccc(-c4cccc(NC(=O)c5nc6c(n5C)CCN(C[C@H]5CC[C@H](C(=O)O)CC5)C6)c4Cl)c3Cl)n2C)C1 [Example 67, trans-4-((2-((2,2′-dichloro-3′-(5-((R)-2-hydroxypropyl)-1-methyl-4,5,6,7-tetrahydro-1H-imidazo[4,5-c]pyridine-2-carboxamido)-[1,1′-biphenyl]-3-yl)carbamoyl)-1-methyl-1,4,6,7-tetrahydro-5H-imidazo[4,5-c]pyridin-5-yl)methyl)cyclohexane-1-carboxylic acid]
≤ 10 | CN1CCc2c(nc(C(=O)Nc3cccc(-c4cccc(NC(=O)c5nc6c(n5C)CCN(C[C@H]5CC[C@@H](C(=O)O)CC5)C6)c4Cl)c3Cl)n2C)C1 [Example 69, cis-4-((2-((2,2′-dichloro-3′-(1,5-dimethyl-4,5,6,7-tetrahydro-1H-imidazo[4,5-c]pyridine-2-carboxamido)-[1,1′-biphenyl]-3-yl)carbamoyl)-1-methyl-1,4,6,7-tetrahydro-5H-imidazo[4,5-c]pyridin-5-yl)methyl)cyclohexane-1-carboxylic acid]
≤ 10 | CCN1CCc2c(nc(C(=O)Nc3cccc(-c4cccc(NC(=O)c5nc6c(n5C)CCN(C[C@H]5CC[C@@H](C(=O)O)CC5)C6)c4Cl)c3Cl)n2C)C1 [Example 70, cis-4-((2-((2,2′-dichloro-3′-(5-ethyl-1-methyl-4,5,6,7-tetrahydro-1H-imidazo[4,5-c]pyridine-2-carboxamido)-[1,1′-biphenyl]-3-yl)carbamoyl)-1-methyl-1,4,6,7-tetrahydro-5H-imidazo[4,5-c]pyridin-5-yl)methyl)cyclohexane-1-carboxylic acid]
≤ 10 | Cn1c(C(=O)Nc2cccc(-c3cccc(NC(=O)c4nc5c(n4C)CCN(C[C@H]4CC[C@@H](C(=O)O)CC4)C5)c3Cl)c2Cl)nc2c1CCN(CCO)C2 [Example 74, cis-4-((2-((2,2′-dichloro-3′-(5-(2-hydroxyethyl)-1-methyl-4,5,6,7-tetrahydro-1H-imidazo[4,5-c]pyridine-2-carboxamido)-[1,1′-biphenyl]-3-yl)carbamoyl)-1-methyl-1,4,6,7-tetrahydro-5H-imidazo[4,5-c]pyridin-5-yl)methyl)cyclohexane-1-carboxylic acid]
≤ 10 | C[C@H](O)CN1CCc2c(nc(C(=O)Nc3cccc(-c4cccc(NC(=O)c5nc6c(n5C)CCN(C[C@H]5CC[C@@H](C(=O)O)CC5)C6)c4Cl)c3Cl)n2C)C1 [Example 75, cis-4-((2-((2,2′-dichloro-3′-(5-((S)-2-hydroxypropyl)-1-methyl-4,5,6,7-tetrahydro-1H-imidazo[4,5-c]pyridine-2-carboxamido)-[1,1′-biphenyl]-3-yl)carbamoyl)-1-methyl-1,4,6,7-tetrahydro-5H-imidazo[4,5-c]pyridin-5-yl)methyl)cyclohexane-1-carboxylic acid]
≤ 10 | C[C@@H](O)CN1CCc2c(nc(C(=O)Nc3cccc(-c4cccc(NC(=O)c5nc6c(n5C)CCN(C[C@H]5CC[C@@H](C(=O)O)CC5)C6)c4Cl)c3Cl)n2C)C1 [Example 76, cis-4-((2-((2,2′-dichloro-3′-(5-((R)-2-hydroxypropyl)-1-methyl-4,5,6,7-tetrahydro-1H-imidazo[4,5-c]pyridine-2-carboxamido)-[1,1′-biphenyl]-3-yl)carbamoyl)-1-methyl-1,4,6,7-tetrahydro-5H-imidazo[4,5-c]pyridin-5-yl)methyl)cyclohexane-1-carboxylic acid]
≤ 10 | Cn1c(C(=O)Nc2cccc(-c3cccc(NC(=O)c4nc5c(n4C)CCN(CC[C@H]4CC[C@H](C(=O)O)CC4)C5)c3Cl)c2Cl)nc2c1CCNC2 [Example 85, trans-4-(2-(2-((2,2′-dichloro-3′-(1-methyl-4,5,6,7-tetrahydro-1H-imidazo[4,5-c]pyridine-2-carboxamido)-[1,1′-biphenyl]-3-yl)carbamoyl)-1-methyl-1,4,6,7-tetrahydro-5H-imidazo[4,5-c]pyridin-5-yl)ethyl)cyclohexane-1-carboxylic acid]
≤ 10 | CCN1CCc2c(nc(C(=O)Nc3cccc(-c4cccc(NC(=O)c5nc6c(n5C)CCN(CC[C@H]5CC[C@H](C(=O)O)CC5)C6)c4Cl)c3Cl)n2C)C1 [Example 86, trans-4-(2-(2-((2,2′-dichloro-3′-(5-ethyl-1-methyl-4,5,6,7-tetrahydro-1H-imidazo[4,5-c]pyridine-2-carboxamido)-[1,1′-biphenyl]-3-yl)carbamoyl)-1-methyl-1,4,6,7-tetrahydro-5H-imidazo[4,5-c]pyridin-5-yl)ethyl)cyclohexane-1-carboxylic acid]

Continued, compound first:

SMILES | IC50 [nM]
Cn1c(C(=O)Nc2cccc(-c3cccc(NC(=O)c4nc5c(n4C)CCN(C[C@H]4CC[C@@H](C(=O)O)CC4)C5)c3Cl)c2Cl)nc2c1CCNC2 [Example 68, cis-4-((2-((2,2′-dichloro-3′-(1-methyl-4,5,6,7-tetrahydro-1H-imidazo[4,5-c]pyridine-2-carboxamido)-[1,1′-biphenyl]-3-yl)carbamoyl)-1-methyl-1,4,6,7-tetrahydro-5H-imidazo[4,5-c]pyridin-5-yl)methyl)cyclohexane-1-carboxylic acid] | ≤ 10
Cn1c(C(=O)Nc2cccc(-c3cccc(NC(=O)c4nc5c(n4C)CCN(C[C@H]4CC[C@@H](C(=O)O)CC4)C5)c3Cl)c2Cl)nc2c1CCN(CC1CC1)C2 [Example 71, cis-4-((2-((2,2′-dichloro-3′-(5-(cyclopropylmethyl)-1-methyl-4,5,6,7-tetrahydro-1H-imidazo[4,5-c]pyridine-2-carboxamido)-[1,1′-biphenyl]-3-yl)carbamoyl)-1-methyl-1,4,6,7-tetrahydro-5H-imidazo[4,5-c]pyridin-5-yl)methyl)cyclohexane-1-carboxylic acid] | ≤ 10
CC(C)N1CCc2c(nc(C(=O)Nc3cccc(-c4cccc(NC(=O)c5nc6c(n5C)CCN(C[C@H]5CC[C@@H](C(=O)O)CC5)C6)c4Cl)c3Cl)n2C)C1 [Example 72, cis-4-((2-((2,2′-dichloro-3′-(5-isopropyl-1-methyl-4,5,6,7-tetrahydro-1H-imidazo[4,5-c]pyridine-2-carboxamido)-[1,1′-biphenyl]-3-yl)carbamoyl)-1-methyl-1,4,6,7-tetrahydro-5H-imidazo[4,5-c]pyridin-5-yl)methyl)cyclohexane-1-carboxylic acid] | ≤ 10
Cn1c(C(=O)Nc2cccc(-c3cccc(NC(=O)c4nc5c(n4C)CCN(C4CCOCC4)C5)c3Cl)c2Cl)nc2c1CCN(C[C@H]1CC[C@@H](C(=O)O)CC1)C2 [Example 73, cis-4-((2-((2,2′-dichloro-3′-(1-methyl-5-(tetrahydro-2H-pyran-4-yl)-4,5,6,7-tetrahydro-1H-imidazo[4,5-c]pyridine-2-carboxamido)-[1,1′-biphenyl]-3-yl)carbamoyl)-1-methyl-1,4,6,7-tetrahydro-5H-imidazo[4,5-c]pyridin-5-yl)methyl)cyclohexane-1-carboxylic acid] | ≤ 10
CN1CCc2c(nc(C(=O)Nc3cccc(-c4cccc(NC(=O)c5nc6c(n5C)CCN(CCc5ccc(C(=O)O)cc5)C6)c4Cl)c3Cl)n2C)C1 [Example 78, 4-(2-(2-((2,2′-dichloro-3′-(1,5-dimethyl-4,5,6,7-tetrahydro-1H-imidazo[4,5-c]pyridine-2-carboxamido)-[1,1′-biphenyl]-3-yl)carbamoyl)-1-methyl-1,4,6,7-tetrahydro-5H-imidazo[4,5-c]pyridin-5-yl)ethyl)benzoic acid] | ≤ 10
CN1CCc2c(nc(C(=O)Nc3cccc(-c4cccc(NC(=O)c5nc6c(n5C)CCN(C5CCC(C(=O)O)CC5)C6)c4Cl)c3Cl)n2C)C1 (stereo not drawn) [Example 79, 4-(2-((2,2′-dichloro-3′-(1,5-dimethyl-4,5,6,7-tetrahydro-1H-imidazo[4,5-c]pyridine-2-carboxamido)-[1,1′-biphenyl]-3-yl)carbamoyl)-1-methyl-1,4,6,7-tetrahydro-5H-imidazo[4,5-c]pyridin-5-yl)cyclohexane-1-carboxylic acid] | ≤ 10
CN1CCc2c(nc(C(=O)Nc3cccc(-c4cccc(NC(=O)c5nc6c(n5C)CCN(C5CCC(C)(C(=O)O)CC5)C6)c4Cl)c3Cl)n2C)C1 (stereo not drawn) [Example 80, 4-(2-((2,2′-dichloro-3′-(1,5-dimethyl-4,5,6,7-tetrahydro-1H-imidazo[4,5-c]pyridine-2-carboxamido)-[1,1′-biphenyl]-3-yl)carbamoyl)-1-methyl-1,4,6,7-tetrahydro-5H-imidazo[4,5-c]pyridin-5-yl)-1-methylcyclohexane-1-carboxylic acid] | ≤ 10
CN1CCc2c(nc(C(=O)Nc3cccc(-c4cccc(NC(=O)c5nc6c(n5C)CCN(CC57CCC(C(=O)O)(CC5)CC7)C6)c4Cl)c3Cl)n2C)C1 [Example 81, 4-((2-((2,2′-dichloro-3′-(1,5-dimethyl-4,5,6,7-tetrahydro-1H-imidazo[4,5-c]pyridine-2-carboxamido)-[1,1′-biphenyl]-3-yl)carbamoyl)-1-methyl-1,4,6,7-tetrahydro-5H-imidazo[4,5-c]pyridin-5-yl)methyl)bicyclo[2.2.2]octane-1-carboxylic acid] | ≤ 10
CCC1(C(=O)O)CCC(N2CCc3c(nc(C(=O)Nc4cccc(-c5cccc(NC(=O)c6nc7c(n6C)CCN(C)C7)c5Cl)c4Cl)n3C)C2)CC1 (stereo not drawn) [Example 83, 4-(2-((2,2′-dichloro-3′-(1,5-dimethyl-4,5,6,7-tetrahydro-1H-imidazo[4,5-c]pyridine-2-carboxamido)-[1,1′-biphenyl]-3-yl)carbamoyl)-1-methyl-1,4,6,7-tetrahydro-5H-imidazo[4,5-c]pyridin-5-yl)-1-ethylcyclohexane-1-carboxylic acid] | ≤ 10
CN1CCc2c(nc(C(=O)Nc3cccc(-c4cccc(NC(=O)c5nc6c(n5C)CCN(CC57CCC(C(=O)O)(CC5)C7)C6)c4Cl)c3Cl)n2C)C1 [Example 84, 4-((2-((2,2′-dichloro-3′-(1,5-dimethyl-4,5,6,7-tetrahydro-1H-imidazo[4,5-c]pyridine-2-carboxamido)-[1,1′-biphenyl]-3-yl)carbamoyl)-1-methyl-1,4,6,7-tetrahydro-5H-imidazo[4,5-c]pyridin-5-yl)methyl)bicyclo[2.2.1]heptane-1-carboxylic acid] | ≤ 10
